Reference: BindingDB's records for doi:10.1021/jm801306g (University of Alberta, 2009)

Columns and labels:
Trypanothione reductase [1] = target: Trypanothione reductase (Trypanosoma brucei brucei, UniProt P39051); assay: TryR Enzyme Inhibition Assay
Protocol: (§1) Inhibition of TryR was carried out in 96-well plates using a Biotek Precision 2000 automated liquid handler. Reaction was initiated by addition of NADPH to the assay mixtures contained TryR , trypanothione disulfide substrate, and inhibitor (100 uM to 10 nM in 3-fold serial dilutions). […] Raw data was processed using Microsoft Excel. Grafit 5.0 (Erithacus software) was used to fit the data to a three-parameter equation to determine IC50 values. IC50 determinations were carried out in triplicate for each compound and the mean weighted to standard error calculated.

Trypanothione reductase [2] = target: Trypanothione reductase (Trypanosoma cruzi, UniProt P28593); assay: TryR Enzyme Inhibition Assay; details: pH 7.5; 22 °C
Protocol: as §1

Trypanothione reductase (Trypanosoma brucei brucei, UniProt P39051), sequence (P39051 whole entry): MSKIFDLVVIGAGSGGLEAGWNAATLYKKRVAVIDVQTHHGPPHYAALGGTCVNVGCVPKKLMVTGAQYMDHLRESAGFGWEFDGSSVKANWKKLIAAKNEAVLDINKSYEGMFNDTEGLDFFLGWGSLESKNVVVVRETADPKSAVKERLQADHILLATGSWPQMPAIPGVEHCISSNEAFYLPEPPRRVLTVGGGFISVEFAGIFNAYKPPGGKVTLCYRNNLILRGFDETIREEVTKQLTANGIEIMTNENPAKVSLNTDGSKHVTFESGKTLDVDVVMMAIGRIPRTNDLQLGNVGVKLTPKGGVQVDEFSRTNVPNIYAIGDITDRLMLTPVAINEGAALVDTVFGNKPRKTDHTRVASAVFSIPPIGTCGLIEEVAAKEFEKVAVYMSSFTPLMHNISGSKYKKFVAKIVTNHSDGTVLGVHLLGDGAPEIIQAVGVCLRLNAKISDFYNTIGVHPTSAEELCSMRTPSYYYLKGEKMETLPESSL
Trypanothione reductase (Trypanosoma cruzi, UniProt P28593), sequence (P28593 whole entry): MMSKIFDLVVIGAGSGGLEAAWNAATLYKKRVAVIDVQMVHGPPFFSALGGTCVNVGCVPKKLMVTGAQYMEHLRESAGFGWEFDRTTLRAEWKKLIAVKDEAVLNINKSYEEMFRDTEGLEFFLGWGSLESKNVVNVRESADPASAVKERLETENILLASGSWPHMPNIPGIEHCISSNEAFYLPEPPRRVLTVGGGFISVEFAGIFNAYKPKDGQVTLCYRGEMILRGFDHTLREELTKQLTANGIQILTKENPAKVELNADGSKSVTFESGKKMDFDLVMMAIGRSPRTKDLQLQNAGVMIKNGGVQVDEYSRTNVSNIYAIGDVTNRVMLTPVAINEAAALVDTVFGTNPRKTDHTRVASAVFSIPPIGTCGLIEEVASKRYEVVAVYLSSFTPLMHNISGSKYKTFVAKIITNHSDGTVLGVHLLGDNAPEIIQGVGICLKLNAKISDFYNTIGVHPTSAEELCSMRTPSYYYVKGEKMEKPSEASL

## C[N+]1(Cc2ccccc2)CCC(NC=C2C(=O)NC(=O)N(C3CCCCC3)C2=O)CC1 (configuration not stated) [1-benzyl-4-[(E)-[(1-cyclohexyl-2,4,6-trioxo-1,3-diazinan-5-yl)methylidene]amino]-1-methylpiperidin-1-ium]
Trypanothione reductase [1]
  IC50: > 100 µM
Trypanothione reductase [2]
  IC50: 45.2 µM
